Activity calls are given as the source filed them. Cut-off read from the data, not from the text of the source, for most assays here: actives have a measured EC50 and inactives only a lower limit.
Experiments:
[1] = M. tuberculosis H37Rv growth inhibitors, H37Rv strain (AID 1626); type: functional
[2] = cytotoxicity in HPDE-C7 cells, cell-based, fluorescence, HTS (AID 430); type: functional; settings: Homo sapiens
[3] = cytotoxicity in KRAS-transformed pancreatic duct cells, primary screen, cell-based, fluorescence, HTS (AID 431); type: functional; settings: Homo sapiens;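 note: cell line used: HPDE-C7K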
[4] = microbe, parasite or virus in culture; type: functional; settings: Mycobacterium tuberculosis
[5] = target: T1, RNA-binding protein pos-1 (Caenorhabditis elegans, UniProt G5EF15); test: inhibitors of POS-1/mex-3 RNA binding, dose response, biochemical, fluorescence polarization (AID 1964);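 note: purified POS-1 fused to maltose binding protein made in E. coli; potency of compounds blocking POS-1 binding to fluorescent RNA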
T1 sequence (G5EF15 whole entry): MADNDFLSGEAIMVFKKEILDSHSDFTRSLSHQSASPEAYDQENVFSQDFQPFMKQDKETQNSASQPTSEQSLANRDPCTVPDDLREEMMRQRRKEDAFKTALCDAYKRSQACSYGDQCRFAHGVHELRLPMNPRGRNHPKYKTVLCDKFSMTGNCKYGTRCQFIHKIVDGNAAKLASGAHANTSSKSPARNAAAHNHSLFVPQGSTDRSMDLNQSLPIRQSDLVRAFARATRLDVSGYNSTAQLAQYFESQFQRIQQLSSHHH

[6] = target: T2, Zinc finger protein mex-5 (Caenorhabditis elegans, UniProt Q9XUB2); test: MEX-5/TCR-2 RNA interaction inhibitors, dose response, biochemical, C. elegans, fluorescence polarization (AID 1960)
T2 sequence (Q9XUB2 whole entry): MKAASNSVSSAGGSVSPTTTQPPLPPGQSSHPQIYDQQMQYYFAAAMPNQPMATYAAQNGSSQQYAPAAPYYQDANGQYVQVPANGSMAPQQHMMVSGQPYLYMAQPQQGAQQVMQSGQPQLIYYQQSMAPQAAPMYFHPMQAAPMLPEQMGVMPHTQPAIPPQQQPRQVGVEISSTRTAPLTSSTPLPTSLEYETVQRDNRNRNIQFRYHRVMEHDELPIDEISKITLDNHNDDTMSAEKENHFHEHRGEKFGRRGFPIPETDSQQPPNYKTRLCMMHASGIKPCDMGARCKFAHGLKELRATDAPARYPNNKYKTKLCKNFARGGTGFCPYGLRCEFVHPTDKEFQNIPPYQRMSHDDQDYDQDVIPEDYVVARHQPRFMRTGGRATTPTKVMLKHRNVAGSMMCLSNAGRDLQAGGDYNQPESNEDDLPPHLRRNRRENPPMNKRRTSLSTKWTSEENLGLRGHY

[7] = target: Bifunctional protein GlmU (Mycobacterium tuberculosis, UniProt P9WMN3); test: Inhibitors of Mycobacterial Glucosamine-1-phosphate acetyl transferase (GlmU). Secondary screen.; set-up: species or system Mycobacterium tuberculosis H37Rv
Chain of Bifunctional protein GlmU (P9WMN3 whole entry): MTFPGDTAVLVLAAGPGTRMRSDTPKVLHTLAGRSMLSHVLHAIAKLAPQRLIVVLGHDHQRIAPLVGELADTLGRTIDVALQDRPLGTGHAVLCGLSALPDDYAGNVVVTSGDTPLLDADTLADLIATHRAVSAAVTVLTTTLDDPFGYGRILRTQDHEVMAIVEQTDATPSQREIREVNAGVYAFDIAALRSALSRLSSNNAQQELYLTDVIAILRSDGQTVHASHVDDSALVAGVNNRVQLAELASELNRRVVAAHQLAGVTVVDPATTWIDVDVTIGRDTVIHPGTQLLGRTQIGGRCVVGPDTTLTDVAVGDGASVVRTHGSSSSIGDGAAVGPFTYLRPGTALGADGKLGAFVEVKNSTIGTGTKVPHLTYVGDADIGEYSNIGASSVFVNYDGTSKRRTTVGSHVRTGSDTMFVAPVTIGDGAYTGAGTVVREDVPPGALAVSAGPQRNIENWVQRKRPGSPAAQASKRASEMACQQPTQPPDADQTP

[8] = target: Genome polyprotein (dengue virus type 2, UniProt P29990); test: Dengue-2 NS5 methyltransferase inhibitors, primary screen, biochemical, confirmation dose response (AID 588689); type: functional
Chain of Genome polyprotein (P29990 2492-3391 limits assumed): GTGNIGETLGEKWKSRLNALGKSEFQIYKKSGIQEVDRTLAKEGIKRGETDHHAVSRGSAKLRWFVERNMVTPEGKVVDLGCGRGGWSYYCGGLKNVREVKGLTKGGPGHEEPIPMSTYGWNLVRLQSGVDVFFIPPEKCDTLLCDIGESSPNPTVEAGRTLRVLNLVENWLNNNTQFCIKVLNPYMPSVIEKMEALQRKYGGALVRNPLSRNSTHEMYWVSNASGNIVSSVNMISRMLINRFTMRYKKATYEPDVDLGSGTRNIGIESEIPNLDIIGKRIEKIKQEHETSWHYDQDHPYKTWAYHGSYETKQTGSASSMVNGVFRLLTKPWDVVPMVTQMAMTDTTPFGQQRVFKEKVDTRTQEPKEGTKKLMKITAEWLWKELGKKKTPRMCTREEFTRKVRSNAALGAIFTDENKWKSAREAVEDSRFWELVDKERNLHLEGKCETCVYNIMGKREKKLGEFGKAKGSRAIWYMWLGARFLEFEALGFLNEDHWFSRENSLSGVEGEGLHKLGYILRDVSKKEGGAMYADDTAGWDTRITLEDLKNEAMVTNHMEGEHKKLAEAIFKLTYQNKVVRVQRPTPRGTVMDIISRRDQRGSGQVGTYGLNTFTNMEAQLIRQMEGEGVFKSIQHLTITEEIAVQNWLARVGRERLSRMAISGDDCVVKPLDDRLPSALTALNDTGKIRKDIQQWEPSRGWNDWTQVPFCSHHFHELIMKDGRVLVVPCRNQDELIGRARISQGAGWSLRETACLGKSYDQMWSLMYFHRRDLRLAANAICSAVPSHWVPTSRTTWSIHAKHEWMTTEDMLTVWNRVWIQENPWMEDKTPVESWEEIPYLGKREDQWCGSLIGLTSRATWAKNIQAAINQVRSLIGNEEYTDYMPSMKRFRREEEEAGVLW

[9] = P. falciparum late gametocyte killing, dose response, luminescence (AID 1117278); type: functional, cell-based;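 note: gametocytes exposed to compound for 24 hours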
[10] = Jurkat T cell cytotoxicity, dose response, cytotoxicity control for P. falciparum gametocyte viability project, luminescence (AID 1117277); type: functional, cell-based;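 note: potency reflects loss of cellular ATP meaning fewer viable cells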
[11] = Luminescence Cell-Based Dose Response to Identify Activators of 5'UTR Stem-Loop Driven Prion Protein mRNA Translation in H4-C Neuroglioblastoma Cells. [Related pubchem assays: 1829 (Project Summary), 1814 (Primary HTS)]; type: functional
[12] = Luminescence Cell-Based Dose Response HTS to Identify Activators of Luciferase Translation or Activity in H4 […] Cells. [Related pubchem assays: 1829 (Project Summary), 1814 (Primary HTS)]; type: functional
[13] = system: H4; test: Luminescence Cell-Based Dose Response HTS to Identify Activators of 5'UTR Stem-Loop Driven Prion Protein mRNA Translation in H4 Neuroglioblastoma Cells. [Related pubchem assays: 1829 (Project Summary), 1814 (Primary HTS)]; type: functional; settings: Homo sapiens
[14] = Luminescence Cell-Based Dose Response to Identify Activators of Luciferase Translation or Activity in H4-C Neuroglioblastoma Cells. [Related pubchem assays: 1829 (Project Summary), 1814 (Primary HTS)]; type: functional
[15] = Luminescence Cell-Based Dose Confirmation to Identify Activators of 5'UTR Stem-Loop Driven Alpha-Synuclein mRNA Translation in H4 Neuroglioblastoma Cells. [Related pubchem assays: 1829 (Project Summary), 1814 (Primary HTS)]; type: functional
[16] = HEp-2 cell cytotoxicity, dose response, cytotoxicity control for RSV inhibitor project, HTS (AID 2410); type: functional; settings: human respiratory syncytial virus
[17] = inhibitors of intracellular T. cruzi replication, confirmation, NIH3T3 host cells, beta-gal luminescence (AID 2044); type: functional, cell-based;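 note: intracellular parasites grown in NIH/3T3 mouse fibroblasts as host cells; luminescent beta-galactosidase reporter signal from transgenic T. cruzi replicating inside host cells; inhibitors lower the luminescence signal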
[18] = cytotoxicity toward NIH3T3 fibroblasts, dose response, counter-screen, cell-based, ATP luminescence, mouse fibroblasts (AID 2010); type: functional;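 note: cells exposed to compound for about 90 hours before reading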
[19] = cells

Question: Which IC50 [1] does the source give for `COc1ccc(-c2cc(C(F)(F)F)n3ncc(C(=O)N4CCCCC4c4cccnc4)c3n2)cc1` (configuration not stated) here?
Answer: > 100 µM (active)

Question: For `COC(=O)C(CC(=O)c1ccc(Br)cc1)n1ccnc1` (configuration not stated), which EC50 [2] is on record?
Answer: 15.5 µM (active)

Question: And the EC50 [3]?
Answer: 14.4 µM (active)

Question: What does the source list for `Cc1nc2cc(C(F)(F)F)ccc2n1C1CCN(Cc2nnnn2Cc2ccc3c(c2)OCO3)CC1`?
Answer: EC50 [2]: 8.54 µM (active); CC50 [4]: > 40 µM (active); EC50 [3]: 8.93 µM (active)

Question: Which EC50 [5] does the source give for `COc1ccc(N2C(=O)C(Cl)=C(Nc3ccccc3O)C2=O)cc1` here?
Answer: > 300 µM (not active)

Question: What about the EC50 [6] of the same compound?
Answer: 24.5 µM (active)

Question: And the IC50 [7]?
Answer: 53.6 µM (active)

Question: What about the IC50 [8] of the same compound?
Answer: 78 µM (active)

Question: Which IC50 [9] does the source give for `O=C(COC(=O)Cc1ccc(F)cc1)NCc1ccco1` here?
Answer: > 109 µM (inactive)

Question: What about the IC50 [10] of the same compound?
Answer: > 83.2 µM (inactive)

Question: With `COc1ccc(Cl)c2c3n[nH]c(SCc4ccccn4)nc-3nc12` as the compound, how does the EC50 [11] read?
Answer: 391 nM (active)

Question: And the EC50 [12]?
Answer: < 100 nM (active)

Question: And the EC50 [13]?
Answer: 25.2 µM (active)

Question: And the EC50 [14]?
Answer: 287 nM (active)

Question: And the EC50 [15]?
Answer: 249 nM (active)

Question: With `CCCSc1nnc(NC(=O)c2sc3nc(-c4cccs4)ccc3c2N)s1` as the compound, how does the CC50 [16] read?
Answer: 46 µM (active)

Question: What about the IC50 [7] of the same compound?
Answer: 167 µM (active)

Question: Which EC50 [17] does the source give for `CCc1sc(C(=O)NC2CCN(C)CC2)cc1Br` here?
Answer: < 100 nM (active)

Question: What about the EC50 [18] of the same compound?
Answer: > 60 µM (not active)

Question: And the EC50 [19]?
Answer: 26 nM (active)

Source: ChEMBL document CHEMBL1201862, “PubChem BioAssay data set” (2004)
